The source of these data is patent US20250025442A1, “BCAA-Lowering Compounds for Prevention and/or Treatment of Alzheimer's Disease and Related Disorders” (Texas Tech University System, priority 2020, published 2025).

For data set [1] the following is noted: in hepatocytes; cited from earlier work.
For data set [2] the following is noted: CD-1 mice, in vivo pharmacokinetics study; cited from earlier work.
Another data set concerns plasma BCAAs. The following applies: mice; cited from earlier work.
A further data set deals with BCKDH kinase. The following applies: cited from earlier work.
The next data set relates to 5xFAD mice. The data set can be described thus: BT2 daily ip injection for one month in 5xFAD mice. Type of data set: in vivo. The source says: These transgenic mice develop amyloid plaques and neuroinflammation at as early as 1.5-2 months of age^7, thus allowing the inventors to investigate the role of BCAAs in AD-related brain pathology when they are young. […] Next, the inventors examined amyloid and Tau pathology in the cortex.

“(S)-α-chloro-phenylpropionic acid [(S)-CPP]”: the Half-life in data set [1] is ~7 h. Besides, the clearance rate in data set [2] was 0.113 mL/min. In the data set on plasma BCAAs, the “plasma BCAAs” value was “lowering plasma BCAAs”. Further, the “inhibit BCKDH kinase” value in the data set with BCKDH kinase was “effectively inhibit”.
As to `O=C(O)c1sc2cc(Cl)ccc2c1Cl` [BT2, 3,6-dichlorobenzo[b]thiophene-2-carboxylic acid], the “increase of tyrosine hydroxylase (TH) protein level” value in the data set on 5xFAD mice (5xFAD mice, p=0.07) is ~400%. Moreover, the blood glucose result with 5xFAD mice (BT2-treated vs vehicle-treated 5xFAD mice) was “markedly decrease”. Further, in the data set with 5xFAD mice (cortex, 5xFAD mice), the Aβ-42 level result is “completely rescued” and the “elevated Aβ-degrading enzyme IDE” value was found to be 70%. Further, in the data set on 5xFAD mice (cortex, BT2-treated 5xFAD mice), the “increase of DA” value amounted to 180% and the “increase of DOPAC” value was determined as 300%. Besides, the GSK3β result in the data set on 5xFAD mice (cortex, after BT2 treatment) was “significantly reduced”. In the data set on 5xFAD mice (hippocampus, 5xFAD mice), the “BACE1 (β-secretase)” value is listed as “markedly lowered”, the NE level result is “fully restored”, the “mRNA of NF-κB (inflammation)” value was “decreased” and the “mRNA of PERK (ER stress)” value is on record as “decreased”. In addition, the “higher 5-HT” value in the data set with 5xFAD mice (hippocampus, after BT2 treatment, p<0.05) turned out to be 50%. Besides, the “higher DA” value with 5xFAD mice (hippocampus, after BT2 treatment, p=0.08) came out at 40%. For the same compound, the “plasma BCAAs” value in the data set with plasma BCAAs was “lowering plasma BCAAs”. Also, the “inhibit BCKDH kinase” value in the data set on BCKDH kinase is given as “effectively inhibit”.
